# Experimental data as given in patent EP2167084B1, “AN ALLERGEN DOSAGE FORM COMPRISING AN ANTIHISTAMINE” (ALK-Abelló A/S, priority 2007, dated 2008).
# Experiment: Cross-over, single-centre investigation of the effect of desloratidine on local adverse effects caused by Phleum pratense pollen extract (Grazax)
# Format: in vivo, patients
# Conditions: 2.5 mg, half the daily dose for a person above 12 years of age, given with Grazax
# Text: Investigation of the effect of desloratidine on adverse effects such itching in or around the mouth and the lips, ithching throat, itching in the ears and eyes caused by Phleum pratense pollen extract
# The study was is was a cross-over, single-centre investigation.
# The patients participated on two single days (visit 1 and visit 2) separated by approximately two weeks to avoid development of tolerance due to Grazax treatment. The subjects received one Grazax 75,000 SQ-T on Visit 1 and if they reported treatment related local adverse events in the mouth and/or throat after intake they were eligible for Visit 2. If no treatment related adverse events were reported after Grazax intake on Visit 1 the subjects were excluded from the study. On visit 2, the subjects received 1 antihistamine (Aerius (Desloratadine) melting tablet 2.5 mg, i.e. orally-disintegrating tablet). Grazax was administered immediately after intake of antihistamine.
# AEs were reported on AE pages. AEs were rated mild, moderate or severe. Furthermore, the subjects rated the AE severity on a Visual Analogue Scale (VAS). The AEs of interest were itching mouth, itching throat or other local reactions.
# A total of 15 subjects attended visit 1. […] These were therefore eligible for visit 2. Key selection criteria were: • 1. […]
compound,measurement,value
Clc1ccc2c(c1)CCc1cccnc1C2=C1CCNCC1 [desloratidine],relief from the itching of the mouth and pharynx,sufficient to relieve most patients
